In patent US20100152136A1 (priority 2006, published 2010):

Test system: newly diagnosed multiple myeloma patients
Test: Total Therapy 2 (TT2) clinical trial, multivariate Cox regression of overall and event-free survival
Assay type: in vivo, human
Method: Purified plasma cells (PCs) were obtained from newly diagnosed multiple myeloma patients who were treated on NIH-sponsored clinical trials UARK 98-026 (Total Therapy 2, TT2) (n=351) and UARK 03-033 (Total Therapy 3, TT3) (n=214). Both protocols utilized induction regimens, followed by melphalan-based tandem autotransplants, consolidation chemotherapy and maintenance treatment.
The Kaplan-Meier method was to estimate OS. OS was defined as the time from the date of registration until death from any cause; survivors were censored at the time of last contact. Significance analysis of microarray (SAM) was used to determine statistically significant expression changes of genes in high- and low-TP53-expressing MM plasma cells. Univariate and multivariate analyses of prognostic factors were performed with the Cox regression.
The details of TT2 and TT3 protocols and their overall results have been reported previously; however, results related to 177 additional patients treated in a TT3 successor protocol to validate bortezomib pharmaco-genomic data have not been reported. The median follow-up times for TT2 and TT3 are 7.2 and 3.9 years, respectively. Both protocols and their revisions had been approved by the Institutional Review Board, and patients had signed a written informed consent in keeping with institutional and federal policies.
The Kaplan-Meier method was used to estimate overall and event-free survival with group comparisons made using the log-rank test. Overall survival and event-free survival were measured from the date of registration until death from any cause and disease relapse or death from any cause, respectively; survivors were censored at the time of last contact. Univariate and multivariate analyses of prognostic factors were carried out using Cox regression models.

[1] = TT2, randomization to thalidomide, 170/341 patients, multivariate analysis, median follow-up 7.2 years (Table 5)

`O=C1CCC(N2C(=O)c3ccccc3C2=O)C(=O)N1` (stereo not shown) [Thalidomide] was tested, and the “effect of randomization on event-free and overall survival” value (TT2, in words) was “beneficial effect”, the “Event-Free Survival HR (95% CI)” value (TT2, randomization to thalidomide, 166/334 patients, multivariate analysis (Table 2)) was 0.75 (0.60, 0.93) and the “Event-free survival HR” value [1] was 0.61. The “Overall Survival HR” value [1] was 0.70.
